Results: ChEMBL document CHEMBL1130684, “Potent, non-thiol inhibitors of farnesyltransferase” (Bioorg Med Chem Lett, 1998)
pIC50: −log10 of the molar value.

These compounds were tested against T1, Protein farnesyltransferase (Homo sapiens, UniProt P49354+P49356) (assay: Inhibition of FTase-catalyzed incorporation of [3H]- FPP radioligand into recombinant Ha-Ras by 50% at an enzyme concentration of 1 nM.).
Format: protein-complex assay

`CCC(C)[C@@H](CN(CC(=O)N[C@@H](CCSC)C(=O)O)Cc1cccc2ccccc12)NC(=O)CSc1ccccc1` (some centres not stated) and `CCC(C)[C@@H](CN(CC(=O)N[C@@H](CCSC)C(=O)O)Cc1cccc2ccccc12)NC(=O)CSCc1ccccc1` (some centres not stated) are within 0.2 log units of each other in pIC50: 7.29 for the first, 7.44 for the second.

Compared with `CCC(C)[C@@H](CN(CC(=O)N[C@@H](CCSC)C(=O)O)Cc1cccc2ccccc12)NC(=O)CSCc1ccc(C#N)cc1` (some centres not stated), `CCC(C)[C@@H](CN(CC(=O)N[C@@H](CCSC)C(=O)O)Cc1cccc2ccccc12)NC(=O)CSCc1ccc(C)cc1` (some centres not stated) is 0.42 log units lower in pIC50: 8.27 for the first, 7.85 for the second. The first is the more potent here.

Going from `CCC(C)[C@@H](CN(CC(=O)N[C@@H](CCSC)C(=O)O)Cc1cccc2ccccc12)NC(=O)CSc1ccncc1` (some centres not stated) to `CCC(C)[C@@H](CN(CC(=O)N[C@@H](CCSC)C(=O)O)Cc1cccc2ccccc12)NC(=O)CSCc1ccncc1` (some centres not stated), the pIC50 falls from 7.77 to 6.64 (1.13 log units). The first is the more potent here.

`CCC(C)[C@@H](CN(CC(=O)N[C@@H](CCSC)C(=O)O)Cc1ccccc1)NC(=O)CSc1nc2ccccc2[nH]1` (some centres not stated) and `CCC(C)[C@@H](CN(CC(=O)N[C@@H](CCSC)C(=O)O)Cc1ccccc1)NC(=O)CSc1nc[nH]n1` (some centres not stated) cannot be ordered by pIC50: less than 5.00 for the first, less than 5.00 for the second.

Compared with `CCC(C)[C@@H](CN(CC(=O)N[C@@H](CCSC)C(=O)O)Cc1cccc2ccccc12)NC(=O)CSCc1cccc([N+](=O)[O-])c1` (some centres not stated), `CCC(C)[C@@H](CN(CC(=O)N[C@@H](CCSC)C(=O)O)Cc1cccc2ccccc12)NC(=O)CSCc1ccc([N+](=O)[O-])cc1` (some centres not stated) is 0.57 log units higher in pIC50: 7.64 for the first, 8.21 for the second. The second is the more potent here.

First: CCC(C)[C@@H](CN(CC(=O)N[C@@H](CCSC)C(=O)O)Cc1cccc2ccccc12)NC(=O)CCCCc1ccccc1 (some centres not stated)
Second: CCC(C)[C@@H](CN(CC(=O)N[C@@H](CCSC)C(=O)O)Cc1cccc2ccccc12)NC(=O)CSCCc1ccccc1 (some centres not stated)
The pIC50 of the first is 0.28 log units lower: 6.64 for the first, 6.92 for the second. The second is the more potent here.

Going from `CCC(C)[C@@H](CN(CC(=O)N[C@@H](CCSC)C(=O)O)Cc1ccccc1)NC(=O)CSc1nnc(N)s1` (some centres not stated) to `CCC(C)[C@@H](CN(CC(=O)N[C@@H](CCSC)C(=O)O)Cc1cccc2ccccc12)NC(=O)CNCc1ccccc1` (some centres not stated), the pIC50 rises from less than 5.00 to 6.72.

`CCC(C)[C@@H](CN(CC(=O)N[C@@H](CCSC)C(=O)O)Cc1cccc2ccccc12)NC(=O)CSCc1ccc(S(C)(=O)=O)cc1` (some centres not stated) and `CCC(C)[C@@H](CN(CC(=O)N[C@@H](CCSC)C(=O)O)Cc1cccc2ccccc12)NC(=O)CSCc1ccc(OC)cc1` (some centres not stated) are within 0.2 log units of each other in pIC50: 7.80 for the first, 7.77 for the second.

Going from `CCC(C)[C@@H](CN(CC(=O)N[C@@H](CCSC)C(=O)O)Cc1cccc2ccccc12)NC(=O)CCCc1ccc([N+](=O)[O-])cc1` (some centres not stated) to `CCC(C)[C@@H](CN(CC(=O)N[C@@H](CCSC)C(=O)O)Cc1cccc2ccccc12)NC(=O)CSCc1ccccc1[N+](=O)[O-]` (some centres not stated), the pIC50 falls from 7.72 to 7.07 (0.65 log units).

`CCC(C)[C@@H](CN(CC(=O)N[C@@H](CCSC)C(=O)O)Cc1cccc2ccccc12)NC(=O)CSCc1ccc(-c2ccccc2)cc1` (some centres not stated) and `CCC(C)[C@@H](CN(CC(=O)N[C@@H](CCSC)C(=O)O)Cc1cccc2ccccc12)NC(=O)CSCc1ccc(C(F)(F)F)cc1` (some centres not stated) are within 0.2 log units of each other in pIC50: 7.54 for the first, 7.43 for the second.

`CCC(C)[C@@H](CN(CC(=O)N[C@@H](CCSC)C(=O)O)Cc1cccc2ccccc12)NC(=O)C[S+]([O-])Cc1ccccc1` (some centres not stated) and `CCC(C)[C@@H](CN(CC(=O)N[C@@H](CCSC)C(=O)O)Cc1cccc2ccccc12)NC(=O)COCc1ccccc1` (some centres not stated) are within 0.2 log units of each other in pIC50: 6.80 for the first, 6.64 for the second.

Going from `CCC(C)[C@@H](CN(CC(=O)N[C@@H](CCSC)C(=O)O)Cc1cccc2ccccc12)NC(=O)CS(=O)(=O)Cc1ccccc1` (some centres not stated) to `CCC(C)[C@@H](CN(CC(=O)N[C@@H](CCSC)C(=O)O)Cc1cccc2ccccc12)NC(=O)CN(Cc1ccccc1)C(C)=O` (some centres not stated), the pIC50 rises from 6.51 to 7.15 (0.64 log units).

Compared with `CCC(C)[C@@H](CN(CC(=O)N[C@@H](CCSC)C(=O)O)Cc1cccc2ccccc12)NCc1cnc[nH]1` (some centres not stated), `CCC(C)[C@@H](CN(CC(=O)N[C@@H](CCSC)C(=O)O)Cc1cccc2ccccc12)NC(=O)CN(Cc1ccccc1)C(=O)OC(C)(C)C` (some centres not stated) is 0.92 log units lower in pIC50: 7.51 for the first, 6.59 for the second. The first is the more potent here.

The compounds below were run against T1, Protein farnesyltransferase (assay: Inhibition of [3H]- FPP incorporation into recombinant Ha-Ras by farnesyl transferase at 10 pM).
Format: protein-complex assay

With `CCC(C)[C@@H](CN(CC(=O)N[C@@H](CCSC)C(=O)O)Cc1cccc2ccccc12)NC[C@@H](N)CS` (some centres not stated) the pIC50 was 9.91.
